Assay results from patent US20210115018A1, “PIPERIDINE COMPOUNDS AS COVALENT MENIN INHIBITORS” (THE REGENTS OF THE UNIVERSITY OF MICHIGAN, priority 2018, published 2021).

Assays:
MV4-11 = assay: 7-day proliferation assay (WST-8), cell growth inhibition; format: cell-based; conditions: MV4-11 cells, 7 days
Procedure, shortened: (§1)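 Cells seeded at 2,000-3,000/well were exposed to serially diluted compound for 7 days at 37° C., 5% CO2. Viability was read by WST-8 absorbance at 450 nm after 1-2 h color development; readings normalized to DMSO-treated cells, IC50 by four-parameter nonlinear regression.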

MOLM13 = assay: as above; format: cell-based; conditions: Homo sapiens, MOLM-13, 168 h, MOLM13 cells, 7 days
Procedure, shortened: as §1

menin protein = target: T1, menin protein (Homo sapiens, UniProt O00255); assay: Fluorescence polarization (FP) competitive binding assay, menin binding affinity; conditions: FP competition with FAM-MM2 probe 2 nM, menin 4 nM, 30 minutes room temperature
T1 sequence (O00255 1-610): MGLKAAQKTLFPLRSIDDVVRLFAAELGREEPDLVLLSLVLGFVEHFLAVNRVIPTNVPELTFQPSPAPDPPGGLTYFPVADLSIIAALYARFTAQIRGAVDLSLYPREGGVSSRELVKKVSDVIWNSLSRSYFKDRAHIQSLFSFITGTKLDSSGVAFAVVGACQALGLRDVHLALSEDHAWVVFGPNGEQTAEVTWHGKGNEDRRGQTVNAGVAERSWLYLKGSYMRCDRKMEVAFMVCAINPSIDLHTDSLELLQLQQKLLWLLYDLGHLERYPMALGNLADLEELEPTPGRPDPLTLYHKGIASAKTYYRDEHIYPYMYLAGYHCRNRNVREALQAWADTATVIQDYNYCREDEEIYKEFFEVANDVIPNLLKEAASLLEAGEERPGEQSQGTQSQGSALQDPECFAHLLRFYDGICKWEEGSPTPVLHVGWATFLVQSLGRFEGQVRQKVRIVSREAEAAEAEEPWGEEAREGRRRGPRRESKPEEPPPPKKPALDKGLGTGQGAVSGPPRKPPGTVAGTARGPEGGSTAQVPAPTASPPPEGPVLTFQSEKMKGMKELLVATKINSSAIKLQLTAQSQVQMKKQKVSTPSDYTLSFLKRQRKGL
Protocol: A fluorescence polarization (FP) competitive binding assay was used to determine the binding affinities of representative menin inhibitors. A FAM labeled fluorescent probe was designed and synthesized based on a MLL1 peptide (FAM-MM2). Equilibrium dissociation constant (Kd) value of FAM-MM2 to menin protein was determined from protein saturation experiments by monitoring the total fluorescence polarization of mixtures composed with the fluorescent probe at a fixed concentration and the protein with increasing concentrations up to full saturation. Serial dilutions of the protein were mixed with FAM-MM2 to a final volume of 200 μl in the assay buffer (PBS with 0.02% Bovine γ-Globulin and 4% DMSO. 0.01% Triton X-100 was added right before assays). Final FAM-MM2 concentration was 2 nM. Plates were incubated at room temperature for 30 minutes with gentle shaking to assure equilibrium. FP values in millipolarization units (mP) were measured using the Infinite M-1000 plate reader (Tecan U.S., Research Triangle Park, N.C.) in Microfluor 1 96-well, black, v-bottom plates (Thermo Scientific, Waltham, Mass.) at an excitation wavelength of 485 nm and an emission wavelength of 530 nm.
The IC50 of representative Compounds of the Disclosure, see Table 3, were determined in a competitive binding experiment. Mixtures of 5 μl of the tested compounds in DMSO and 195 μl of preincubated protein/probe complex solution in the assay buffer were added into assay plates which were incubated at room temperature for 30 minutes with gentle shaking. Final concentration of the menin protein was 4 nM, and final probe concentration is 2 nM. Negative controls containing protein/probe complex only (equivalent to 0% inhibition), and positive controls containing only free probes (equivalent to 100% inhibition), were included in each assay plate. FP values were measured as described above. IC50 values were determined by nonlinear regression fitting of the competition curves.

Row | SMILES | IC50 (MV4-11; Homo sapiens, MV4-11, 168 h) | IC50 (MOLM13) | IC50 (menin protein) | IC50 (MV4-11)
1 | C=CC(=O)Nc1cccc(S(=O)(=O)c2ccc(N3CC(F)(CN4CCC([C@@](CN5CCC5)(c5cccc(F)c5)[C@H]5CCC[C@@H]5NC(=O)OC)CC4)C3)cc2)n1 [compound 85] | < 500 nM | < 500 nM |  | 
2 | C=C(CN(CC)CC)C(=O)N1CC(S(=O)(=O)c2ccc(N3CC(CN4CCC([C@@](CN5CCC5)(c5cccc(F)c5)[C@H]5CCC[C@@H]5NC(=O)OC)CC4)C3)cc2)C1 [Cpd. No. 21, methyl ((1S,2R)-2-((S)-2-(azetidin-1-yl)-1-(1-((1-(4-((1-(2-((diethylamino)methyl)acryloyl)azetidin-3-yl)sulfonyl)phenyl)azetidin-3-yl)methyl)piperidin-4-yl)-1-(3-fluorophenyl)ethyl)cyclopentyl)carbamate] | < 10 nM |  | 2 nM | 
3 | C=CC(=O)Nc1cc(F)cc(S(=O)(=O)c2ccc(N3CC(F)(CN4CCC([C@@](CN5CCC5)(c5cccc(F)c5)[C@H]5CCC[C@@H]5NC(=O)OC)CC4)C3)cc2)c1 [compound 88] | < 50 nM | < 50 nM |  | 
4 | C=CC(=O)Nc1cncc(S(=O)(=O)c2ccc(N3CC(F)(CN4CCC([C@@](CN5CCC5)(c5cccc(F)c5)[C@H]5CCC[C@@H]5NC(=O)OC)CC4)C3)cc2)c1 [compound 83] | < 10 nM | < 100 nM |  | 
5 | COC(=O)N[C@H]1CCC[C@@H]1[C@](CN1CCC1)(c1cccc(F)c1)C1CCN(CC2CN(c3ccc(S(=O)(=O)C4CN(C(=O)/C=C/CN5CCC5)C4)cc3)C2)CC1 [Cpd. No. 173, Methyl ((1S,2R)-2-((S)-2-(azetidin-1-yl)-1-(1-((1-(4-((1-((E)-4-(azetidin-1-yl)but-2-enoyl)azetidin-3-yl)sulfonyl)phenyl)azetidin-3-yl)methyl)piperidin-4-yl)-1-(3-fluorophenyl)ethyl)cyclopentyl)carbamate] | < 10 nM |  | 2 nM | 
6 | C=CC(=O)Nc1cncc(S(=O)(=O)c2ccc(N3CC(F)(CN4CCC([C@@](CN5CCC5)(c5cccc(F)c5)[C@H]5CCC[C@@H]5NC(=O)OC)CC4)C3)c(F)c2)c1 [compound 86] |  |  | 2 nM | < 50 nM
7 | C=C(CN1CCOCC1)C(=O)N1CC(S(=O)(=O)c2ccc(N3CC(CN4CCC([C@@](CN5CCC5)(c5cccc(F)c5)[C@H]5CCC[C@@H]5NC(=O)OC)CC4)C3)cc2)C1 [Cpd. No. 9, methyl ((1S,2R)-2-((S)-2-(azetidin-1-yl)-1-(3-fluorophenyl)-1-(1-((1-(4-((1-(2-(morpholinomethyl)acryloyl)azetidin-3-yl)sulfonyl)phenyl)azetidin-3-yl)methyl)piperidin-4-yl)ethyl)cyclopentyl)carbamate] | < 10 nM |  | 2 nM | 
8 | C=C(CN1CCC1)C(=O)N1CC(S(=O)(=O)c2ccc(N3CC(CN4CCC([C@@](CN5CCC5)(c5cccc(F)c5)[C@H]5CCC[C@@H]5NC(=O)OC)CC4)C3)cc2)C1 [Cpd. No. 22, methyl ((1S,2R)-2-((S)-2-(azetidin-1-yl)-1-(1-((1-(4-((1-(2-(azetidin-1-ylmethyl)acryloyl)azetidin-3-yl)sulfonyl)phenyl)azetidin-3-yl)methyl)piperidin-4-yl)-1-(3-fluorophenyl)ethyl)cyclopentyl)carbamate] | < 10 nM |  | 2 nM | 
9 | COC(=O)N[C@H]1CCC[C@@H]1[C@](CN1CCC1)(c1cccc(F)c1)C1CCN(CC2CN(c3ccc(C(F)(F)C4CN(C(=O)/C=C/CN5CCCCC5)C4)cc3)C2)CC1 [compound 71] | < 50 nM |  | 2 nM | 
10 | COC(=O)N[C@H]1CCC[C@@H]1[C@](CN1CCC1)(c1cccc(F)c1)C1CCN(CC2CN(c3ccc(S(=O)(=O)C4CN(C(=O)/C=C/CN5CCOCC5)C4)cc3)C2)CC1 [Cpd. No. 25, methyl ((1S,2R)-2-((S)-2-(azetidin-1-yl)-1-(3-fluorophenyl)-1-(1-((1-(4-((1-((E)-4-morpholinobut-2-enoyl)azetidin-3-yl)sulfonyl)phenyl)azetidin-3-yl)methyl)piperidin-4-yl)ethyl)cyclopentyl)carbamate] | < 10 nM |  | 7 nM | 

Continued, values first:

Row | IC50 (MV4-11; Homo sapiens, MV4-11, 168 h) | IC50 (MOLM13) | IC50 (menin protein) | IC50 (MV4-11) | SMILES
11 | < 100 nM | < 1000 nM |  |  | C=CC(=O)N1CCOC[C@@H](S(=O)(=O)c2ccc(N3CC(C)(CN4CCC([C@@](Cn5ccnn5)(c5cccc(F)c5)[C@H]5CCC[C@@H]5NC(=O)OC)CC4)C3)c(F)c2)C1 [compound 185]
12 | < 500 nM | < 500 nM |  |  | C=CC(=O)N1CCC[C@@H](S(=O)(=O)c2ccc(N3CC(O)(CN4CCC([C@@](CNC(C)=O)(c5cccc(F)c5)[C@H]5CCC[C@@H]5NC(=O)OC)CC4)C3)cc2)C1 [compound 205]
13 | < 50 nM | < 50 nM |  |  | C=CC(=O)Nc1cc(OC)cc(S(=O)(=O)c2ccc(N3CC(F)(CN4CCC([C@@](CN5CCC5)(c5cccc(F)c5)[C@H]5CCC[C@@H]5NC(=O)OC)CC4)C3)c(F)c2)c1 [compound 91]
14 | < 50 nM | < 500 nM |  |  | C=CC(=O)N1CCOC[C@@H](S(=O)(=O)c2ccc(N3CC(C)(CN4CCC([C@@](CNC(=O)OC)(c5cccc(F)c5)[C@H]5CCC[C@@H]5NC(=O)OC)CC4)C3)c(F)c2)C1 [compound 181]
15 | < 500 nM | < 1000 nM |  |  | C=CC(=O)N1CCc2ccc(S(=O)(=O)c3ccc(N4CC(F)(CN5CCC([C@@](CN6CCC6)(c6cccc(F)c6)[C@H]6CCC[C@@H]6NC(=O)OC)CC5)C4)c(F)c3)cc21 [compound 126]
16 | < 50 nM | < 50 nM |  |  | C=CC(=O)N1CCCC(S(=O)(=O)c2ccc(N3CC(F)(CN4CCC([C@@](CN5CCC5)(c5cccc(F)c5)[C@H]5CCC[C@@H]5NC(=O)OC)CC4)C3)cc2)C1 (stereo partly drawn) [compound 112]
17 | < 10 nM | < 100 nM |  |  | C=CC(=O)N1CCOC[C@@H](S(=O)(=O)c2ccc(N3CC(CN4CCC([C@@](Cn5ccnn5)(c5cccc(F)c5)[C@H]5CCC[C@@H]5NC(=O)OC)CC4)C3)c(F)c2)C1 [compound 182]
18 | < 50 nM | < 50 nM |  |  | C=CC(=O)N1CCC[C@@H](S(=O)(=O)c2ccc(N3CC(CN4CCC([C@@](CN5CCC5)(c5cccc(F)c5)[C@H]5CCC[C@@H]5NC(=O)OC)CC4)C3)cc2CN2CC(F)C2)C1 [compound 208]
19 | < 10 nM |  | 2 nM |  | COC(=O)N[C@H]1CCC[C@@H]1[C@](CN1CCC1)(c1cccc(F)c1)C1CCN(CC2CN(c3ccc(S(=O)(=O)C4CN(C(=O)/C=C/CN5CCC(F)(F)CC5)C4)cc3)C2)CC1 [compound 103]
20 | < 500 nM | < 500 nM |  |  | C=CC(=O)N1CCOC[C@@H](S(=O)(=O)c2ccc(N3CC(F)(CN4CCC([C@@](Cn5ccnn5)(c5cccc(F)c5)[C@H]5CCC[C@@H]5NC(=O)OC)CC4)C3)c(F)c2)C1 [compound 184]
21 | < 50 nM |  | 2 nM |  | CC#CC(=O)N1CC[C@@H](S(=O)(=O)c2ccc(N3CC(O)(CN4CCC([C@@](CNC(C)=O)(c5cccc(F)c5)[C@H]5CCC[C@@H]5NC(=O)OC)CC4)C3)c(F)c2)C1 [compound 206]
22 | < 50 nM | < 100 nM |  |  | C=CC(=O)N1CCC[C@@H](S(=O)(=O)c2ccc(N3CC(CN4CCC([C@@](CN5CCC5)(c5cccc(F)c5)[C@H]5CCC[C@@H]5NC(=O)OC)CC4)(OC)C3)cc2)C1 [compound 212]
23 | < 10 nM | < 50 nM |  |  | COC(=O)N[C@H]1CCC[C@@H]1[C@](CN1CCC1)(c1cccc(F)c1)C1CCN(CC2(F)CN(c3ccc(S(=O)(=O)C4CN(C(=O)/C=C/CN5CCCCC5)C4)cc3)C2)CC1 [compound 95]
24 | < 10 nM |  | 4 nM |  | COC(=O)N[C@H]1CCC[C@@H]1[C@](CN1CCC1)(c1cccc(F)c1)C1CCN(CC2CN(c3ccc(S(=O)(=O)C4CN(C(=O)/C=C/CN5CCC(F)CC5)C4)cc3)C2)CC1 [compound 100]
